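Assay format: 96-well plates, 48-hour exposure. TGI: total growth inhibition.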
Columns and labels:
Assay in all cases: NCI tumour cell line growth inhibition, 48 h
[1] = system: BT-549 breast
[2] = system: DU-145 prostate
[3] = system: T-47D breast
[4] = system: XF 498 CNS
[5] = system: SNB-78 CNS
[6] = system: DLD-1 colon
[7] = system: P388/ADR leukemia
[8] = system: P388 leukemia
[9] = system: HOP-18 NSCLC

Question: How did the TGI [1] turn out when O=C(c1ccco1)C1CC(c2c(O)ccc3ccccc23)=NN1 (centres undefined) was run?
Answer: 31 µM

Question: What about the TGI [2] of the same compound?
Answer: 30.8 µM

Question: What about the TGI [3] of the same compound?
Answer: 50.5 µM

Question: With CC1(C)OC2CC(=O)OCC23C1CC(=O)C1(C)C3CCC2(C)C(c3ccoc3)OC(=O)C3OC321 (centres undefined) as the compound, how does the TGI [4] read?
Answer: > 125 µM

Question: And the TGI [5]?
Answer: > 125 µM

Question: And the TGI [6]?
Answer: > 125 µM

Question: And the TGI [7]?
Answer: > 125 µM

Question: What about the TGI [8] of the same compound?
Answer: > 39.5 µM

Question: What about the TGI [9] of the same compound?
Answer: > 125 µM

— PubChem BioAssay (NCI)
